{
  "source": "paper PMC8068801",
  "about": "“Novel Benzenesulfonate Scaffolds with a High Anticancer Activity and G2/M Cell Cycle Arrest” (Cancers, 2021)",
  "key": {"[1]": {"test_system": "U-251 cells", "assay": "Cell cycle assay (Muse Cell-Cycle Kit), U-251", "assay_type": "cell-based, human", "settings": "24 h", "description": "(§1) The K562, U-251 and NHDF cells were seeded in 3 cm Petri dishes (Nunc) at a density of 250,000 cells per well and incubated under standard conditions at 37 °C for 24 h. […] After a 24 h treatment, the assays were performed using a Muse Cell-Cycle Kit (Millipore, Burlington, MA, USA) according to the supplier’s instructions. Briefly, the cells were collected, washed with cold PBS and centrifuged at 300 g for 5 min. Afterwards, the cells were fixed in ice cold 70% ethanol and stored at −20 °C overnight. The next day, the cells were washed with cold PBS, centrifuged and resuspended in 200 μL of the Muse™ Cell Cycle Reagent. The samples were incubated for 30 min at room temperature in the dark. After staining, the cellular subpopulation values in the individual cell cycle phases were estimated using a cell cycle analysis using a Muse Cell Analyzer (Millipore). The experiments were performed at least four times."}, "[2]": {"test_system": "K562 cells", "assay": "Cell cycle assay (Muse Cell-Cycle Kit), K562", "assay_type": "cell-based, human", "settings": "24 h", "description": "as §1"}, "[3]": {"test_system": "U-251 cells", "assay": "Autophagy assay (Muse LC3-antibody kit), U-251", "assay_type": "cell-based, human", "settings": "U-251, 4 μM, 24 h; vs control", "description": "(§2) The K562 and U-251 cells were seeded in 96-well plates (Nunc) and incubated at 37 °C for 24 h. The density of the cells was 20,000 cells per well (for the 24 h assay) and 10,000 per well (for the 48 h assay). […] After treatment, the assays were performed using a Muse™ Autophagy LC3-antibody based kit (Millipore) according to the manufacturer’s instructions. Briefly, the cells were collected, washed with cold HPBS and centrifuged at 300 g for 5 min. […] The samples were incubated on ice for 30 min in the dark. After incubation, the cells were centrifuged and resuspended in 200 μL of a 1X Assay Buffer. Then, the samples were directly processed to analyze the autophagy induction using a Muse Cell Analyzer. The autophagy induction ratio was calculated on the basis of the ratio between the target sample fluorescence versus the control sample. The experiments were performed at least three times."}, "[4]": {"test_system": "U-251 cells", "assay": "qRT-PCR mRNA expression, U-251", "assay_type": "cell-based, human", "settings": "for Increase in the GADD45α mRNA expression / p62 mRNA expression: 24 h; for LC3 mRNA expression: U-251, 24 h", "description": "(§3) The total RNA was isolated from the K562 and U-251 cells using the TRIzol Reagent procedure (Ambion, Austin, TX, USA). Reverse transcription was performed with 5 μg of total RNA using a GoScript™ Reverse Transcriptase kit (Promega) and Oligo(dT)23 Primers (Sigma). Real-time PCR was performed using a CTX96 Touch™ Real-Time PCR Detection System (Biorad, Hercules, CA, USA) in a 20 μL reaction volume. The reaction consisted of SsoAdvanced™ Universal SYBR® Green Supermix (Biorad), a specific primer pair mix (0.5 μM each) and 1 μL of cDNA. The reaction was performed under the following conditions: initial denaturation at 95 °C for 30 s; followed by 40 denaturation cycles at 95 °C, 15 s; annealing (primer-specific temperature for 30 s) and extension at 72 °C for 60 s. The obtained results were analyzed based on a comparison of the expression of the target genes to the reference gene, GAPDH, using the 2^−ΔΔCT method. The experiments were performed at least four times."}, "[5]": {"test_system": "K562 cells", "assay": "qRT-PCR mRNA expression, K562", "assay_type": "cell-based, human", "settings": "24 h", "description": "as §3"}, "[6]": {"test_system": "U-251 cells", "assay": "Annexin V binding (apoptosis) assay, U-251", "assay_type": "cell-based, human", "settings": "U-251, 6 μM, 48 h", "description": "The K562, U-251 and NHDF cells were seeded in 3 cm Petri dishes (Nunc) at a density of 250,000 cells per well and incubated at 37 °C for 24 h. Then, the medium was removed, and freshly prepared solutions of the tested compounds, BS1 and BS4 (two to three times the IC50 value), were added. After a 48 h incubation, the assays were performed using a FITC Annexin V Apoptosis Detection KIT with 7-AAD (Bio-Legend) according to the manufacturer’s instructions. Briefly, the cells were collected, washed twice with cold PBS and centrifuged at 300 g for 5 min. Next, the cells were resuspended in a 100 µL Annexin V Binding Buffer and incubated for 15 min at room temperature in the dark with 5 µL of FITC Annexin V and 5 µL 7-AAD Viability Staining Solution. After immunostaining, the number of events for live, early and late apoptotic cells were determined using a Muse Cell Analyzer. The experiments were performed at least four times."}, "[7]": {"test_system": "purified bovine tubulin", "assay": "In vitro tubulin polymerization assay", "assay_type": "biochemical", "settings": "10 µM; turbidity at 350 nm, maximum absorbance", "description": "The effect of small-molecule compounds on tubulin polymerization was monitored using an In Vitro Tubulin Polymerization Kit (≥99% Pure Bovine Tubulin) (Millipore) following the manufacturer’s protocol. Briefly, the tested compounds, BS1 and BS4, as well as reference drugs, paclitaxel (enhancer of polymerization) and nocodazole (inhibitor of polymerization) at a concentration of 10 µM were mixed with purified bovine tubulin (60 μM) and polymerization buffer with GTP (1 mM) on 96-well plate on ice. Then, the plate was transferred into the multi-plate reader (Synergy 4) chamber (heated to 37 °C) and measured the turbidity variation every 30 s at 350 nm during 90 min. The experiments were performed three times."}, "[8]": {"test_system": "K562 cells", "assay": "Autophagy assay (Muse LC3-antibody kit), K562", "assay_type": "cell-based, human", "settings": "K562, 0.5 μM, vs control", "description": "as §2"}},
  "data": [
    {"smiles": "COc1ccccc1/C=C/c1nc(OS(=O)(=O)c2ccc(C)cc2)c2ccccc2n1", "note": "[BS4, 2-((E)-2-(2-methoxyphenyl)ethenyl)quinazolin-4-yl 4-methylbenzenesulfonate]", "values": [
      {"measurement": "Increase in the fraction of cells in the G2/M phase compared to the control", "setting": "[1]; U-251, 4 µM", "value": "~23.1", "unit": "%"},
      {"measurement": "Increase in the fraction of cells in the G2/M phase compared to the control", "setting": "[1]; U-251, 6 μM", "value": "about 40.92%"},
      {"measurement": "Cells in G0/G1 phase, mean ± SD", "setting": "[2]; K562, 0.5 μM", "value": 21.80, "unit": "%"},
      {"measurement": "Cells in G2/M phase, mean ± SD", "setting": "[2]; K562, 0.5 μM", "value": 58.73, "unit": "%"},
      {"measurement": "Cells in S phase, mean ± SD", "setting": "[2]; K562, 0.5 μM", "value": 18.32, "unit": "%"},
      {"measurement": "Autophagy induction ratio", "setting": "[3]", "value": 5.03},
      {"measurement": "Increase in the GADD45α mRNA expression", "setting": "[4]; U-251, 4 µM", "value": "~1.5", "unit": "fold"},
      {"measurement": "p62 mRNA expression", "setting": "[4]; U-251, 6 μM", "value": "almost four-fold increase"},
      {"measurement": "LC3 mRNA expression", "setting": "[4]", "value": "more than two-fold increase"},
      {"measurement": "LC3 transcript levels", "setting": "[5]; K562, 0.35 µM", "value": "decreased"},
      {"measurement": "Decrease in the IDH1 mRNA level", "setting": "[5]; K562, 0.5 µM and 0.35 µM", "value": "about a two-fold decrease"},
      {"measurement": "GADD45α mRNA expression", "setting": "[5]; K562, 0.5 μM", "value": "almost two-fold decrease"}
    ]},
    {"smiles": "COc1ccccc1/C=C/c1nc(OS(=O)(=O)c2ccc3c(c2)OCO3)c2ccccc2n1", "note": "[BS1, 2-((E)-2-(2-methoxyphenyl)ethenyl)quinazolin-4-yl 1,3-benzodioxole-5-sulfonate]", "values": [
      {"measurement": "Cells in G2/M phase, mean ± SD", "setting": "[1]; U-251, 4 µM", "value": 85.40, "unit": "%"},
      {"measurement": "Cells in G0/G1 phase, mean ± SD", "setting": "[1]; U-251, 6 μM", "value": 1.52, "unit": "%"},
      {"measurement": "Cells in G2/M phase, mean ± SD", "setting": "[1]; U-251, 6 μM", "value": 90.68, "unit": "%"},
      {"measurement": "Cells in S phase, mean ± SD", "setting": "[1]; U-251, 6 μM", "value": 1.52, "unit": "%"},
      {"measurement": "Cells in G2/M phase, mean ± SD", "setting": "[2]; K562, 0.35 µM", "value": 43.46, "unit": "%"},
      {"measurement": "Cells in G2/M phase, mean ± SD", "setting": "[2]; K562, 0.5 μM", "value": 37.20, "unit": "%"},
      {"measurement": "Early apoptotic cells, mean ± SD", "setting": "[6]", "value": 39.80, "unit": "%"},
      {"measurement": "Late apoptotic cells, mean ± SD", "setting": "[6]", "value": 11.40, "unit": "%"},
      {"measurement": "Enhancement of tubulin polymerization, increase compared to control", "setting": "[7]", "value": "about 47%"},
      {"measurement": "Increase in the GADD45α mRNA expression", "setting": "[4]; U-251, 4 µM", "value": "~1.5", "unit": "fold"},
      {"measurement": "p62 mRNA expression", "setting": "[4]; U-251, 4 µM", "value": "almost four-fold increase"},
      {"measurement": "LC3 mRNA expression", "setting": "[4]", "value": "more than two-fold increase"},
      {"measurement": "Autophagy induction ratio", "setting": "[8]; 24 h", "value": 2.26},
      {"measurement": "Autophagy induction ratio", "setting": "[8]; 48 h", "value": 1.96},
      {"measurement": "Decrease in the IDH1 mRNA level", "setting": "[5]; K562, 0.5 μM", "value": "~2.4", "unit": "fold"},
      {"measurement": "p62 mRNA level", "setting": "[5]; K562, 0.5 μM", "value": "about three-fold"}
    ]}
  ]
}
